Measured values: patent US20200079765A1, “SUBSTITUTED HETEROARYL PYRROLONES AND SALTS THEREOF AND USE THEREOF AS HERBICIDAL ACTIVE SUBSTANCES” (Bayer CropScience Aktiengesellschaft, priority 2016, published 2020)

Tests used:
Abutilon theophrasti [1] = experiment: Herbicidal post-emergence action (Experimental Part 2, C); format: in vivo; conditions: post-emergence (Part 2), application rate 320 g/ha, rated visually after about 3 weeks
Method: (§1) Seeds of mono- and dicotyledonous weed plants were placed in plastic pots in sandy loam soil (doubly sown with in each case one species of mono- or dicotyledonous weed plants per pot), covered with soil and cultivated in a greenhouse under controlled growth conditions. 2 to 3 weeks after sowing, the test plants were treated at the one-leaf stage. The compounds of the invention, formulated in the form of wettable powders (WP) or as emulsion concentrates (EC), were applied onto the green parts of the plants as aqueous suspension or emulsion with addition of 0.5% additive at a water application rate of 600 liters per hectare (converted). After the test plants had been kept in the greenhouse under optimum growth conditions for about 3 weeks, the activity of the preparations was rated visually in comparison to untreated controls. For example, 100% activity=the plants have died, 0% activity=like control plants. Tables C1 to C8 below show the effects of selected compounds of the general formula (I) according to Tables I.1 to I.116 on various harmful plants and an application rate corresponding to 1280 g/ha or 320 g/ha, which were obtained by the experimental procedure mentioned above.

Amaranthus retroflexus [2] = experiment: as above; format: in vivo; conditions: post-emergence (Part 2), application rate 320 g/ha, rated visually after about 3 weeks
Method: as §1

Echinochloa crus-galli [3] = experiment: as above; format: in vivo; conditions: post-emergence (Part 2), rated visually after about 3 weeks
Method: as §1

Lolium rigidum [4] = experiment: as above; format: in vivo; conditions: post-emergence (Part 2), rated visually after about 3 weeks
Method: as §1

Matricaria inodora [5] = experiment: as above; format: in vivo; conditions: post-emergence (Part 2), application rate 320 g/ha, rated visually after about 3 weeks
Method: as §1

Poa annua [6] = experiment: as above; format: in vivo; conditions: post-emergence (Part 2), application rate 320 g/ha, rated visually after about 3 weeks
Method: as §1

Setaria viridis [7] = experiment: as above; format: in vivo; conditions: post-emergence (Part 2), application rate 320 g/ha, rated visually after about 3 weeks
Method: as §1

Stellaria media [8] = experiment: as above; format: in vivo; conditions: post-emergence (Part 2), application rate 320 g/ha, rated visually after about 3 weeks
Method: as §1

Abutilon theophrasti [9] = experiment: Herbicidal pre-emergence action (Experimental Part 2, D); format: in vivo; conditions: pre-emergence (Part 2), application rate 320 g/ha, scored visually after about 3 weeks
Text: (§2) Seeds of mono- and dicotyledonous weed plants were placed in plastic pots in sandy loam soil (doubly sown with in each case one species of mono- or dicotyledonous weed plants per pot) and covered with soil. The compounds of the invention, formulated in the form of wettable powders (WP) or as emulsion concentrates (EC), were then applied onto the surface of the covering soil as aqueous suspension or emulsion with addition of 0.5% additive at a water application rate of 600 liters per hectare (converted). After the treatment, the pots are placed in a greenhouse and kept under good growth conditions for the trial plants. After about 3 weeks, the effect of the preparations was scored visually in comparison with untreated controls as percentages. For example, 100% activity=the plants have died, 0% activity=like control plants. Tables D1 to D8 below show the effects of selected compounds of the general formula (I) according to Tables I.1 to I.116 on various harmful plants and an application rate corresponding to 1280 g/ha or 320 g/ha, which were obtained by the experimental procedure mentioned above.

Amaranthus retroflexus [10] = experiment: as above; format: in vivo; conditions: pre-emergence (Part 2), application rate 320 g/ha, scored visually after about 3 weeks
Text: as §2

Echinochloa crus-galli [11] = experiment: as above; format: in vivo; conditions: pre-emergence (Part 2), application rate 320 g/ha, scored visually after about 3 weeks
Text: as §2

Lolium rigidum [12] = experiment: as above; format: in vivo; conditions: pre-emergence (Part 2), scored visually after about 3 weeks
Text: as §2

Matricaria inodora [13] = experiment: as above; format: in vivo; conditions: pre-emergence (Part 2), application rate 320 g/ha, scored visually after about 3 weeks
Text: as §2

Poa annua [14] = experiment: as above; format: in vivo; conditions: pre-emergence (Part 2), application rate 320 g/ha, scored visually after about 3 weeks
Text: as §2

Setaria viridis [15] = experiment: as above; format: in vivo; conditions: pre-emergence (Part 2), scored visually after about 3 weeks
Text: as §2

Stellaria media [16] = experiment: as above; format: in vivo; conditions: pre-emergence (Part 2), application rate 320 g/ha, scored visually after about 3 weeks
Text: as §2

photosystem II (PS II) = target: T1, photosystem II (PS II) (Spinacia oleracea, UniProt P69560); experiment: Measurement of the PS II activity in thylakoid membranes (DCPIP reduction, Experimental Part 3, Table E1); format: biochemical; conditions: spinach thylakoid membranes
T1 construct: the chloroplasts were osmotically ruptured and the thylakoid membranes were then obtained by centrifugation; from tissue; host or cells: thylakoid membranes from fresh spinach leaves
Method: Cooled fresh spinach leaves were comminuted and homogenized in 50 mM phosphate buffer, pH 6.8. 10 mM KCl, 0.34 M sucrose (sucrose buffer) (blender, 1 g of plant material/ml). The homogenate was subsequently filtered through 4 layers of Miracloth and the chloroplasts were isolated by centrifugation, i.e. 10 min of centrifugation at 4400×g (4° C.). The sediment was suspended in 25 ml of sucrose buffer and re-centrifuged for 10 min at 4400×g (4° C.). The sediment was then suspended in 40 ml of 50 mM phosphate buffer, pH 6.8, 10 mM KCl, without sucrose. In this step, the chloroplasts were osmotically ruptured and the thylakoid membranes were then obtained by centrifugation (10 min, 4400×g, 4° C.). The membrane sediment was finally suspended in about 20 ml of 50 mM phosphate buffer, pH 6.8, 10 mM KCl. Following protein determination and activity determination, the membrane suspension was divided into aliquots and frozen in liquid nitrogen. The aliquots were stored at −80° C. Under these conditions, the photosystem II preparation was storage stable for at least three months. The activity determination of photosystem II (PS II) was then carried out using the following test principle: The electron transfer from PS II to an artificial electron acceptor, 2,6-dichlorophenolindophenol (DCPIP), was measured with exposure to light. The concentration of the blue oxidized form of DCPIP was determined spectrophotometrically at wavelength λ=595 nm. […] The activity determination was carried out in microtiter plates (96 cavities) in a reaction volume of 200 μl. Here, 155 μl of dilute membrane suspension were initially charged in 50 mM of phosphate buffer, pH 6.8, 10 mM KCl. Depending on the activity of the PS II preparation, the dilution was adjusted such that the measurement of the decrease in absorption (λ=595 nm) was linear for at least 10 min. In each case 5 μl solution of the test compounds of a concentration of 100 μM in DMSO were added to the enzyme suspension; controls contained 5 μl DMSO; the final concentration of DMSO in the reaction batch was thus 2.5% (v/v); this concentration had no adverse effect on the enzymatic activity. On each microtiter plate, a known PS II inhibitor, for example metribuzin, was used as standard, which allowed the quality of the PS II test to be assessed. The reaction was started by addition of 40 μl DCPIP solution (600 μM in distilled water); the final concentration of DCPIP was 120 μM. Measurement of absorption was carried out over a period of 10 min at 22° C. and with exposure to light. Using metribuzin as comparative substance, the results for the efficacy of the compounds of the general formula (I) at 100 μM are stated in the table below using the following classification: ++++ (inhibition≥90%), +++ (90%>inhibition≥70%), ++ (70%>inhibition≥50%), + (50%>inhibition≥30%).
Effects of selected compounds of the general formula (I) according to the following table E1: […]

Structure (SMILES) | Abutilon theophrasti, herbicidal activity (Abutilon theophrasti [1]) | Amaranthus retroflexus, herbicidal activity (Amaranthus retroflexus [2]) | Echinochloa crus-galli, herbicidal activity (Echinochloa crus-galli [3]; application rate 1280 g/ha) | Lolium rigidum, herbicidal activity (Lolium rigidum [4]; application rate 1280 g/ha) | Matricaria inodora, herbicidal activity (Matricaria inodora [5]) | Poa Annua, herbicidal activity (Poa annua [6]) | Setaria viridis, herbicidal activity (Setaria viridis [7]) | Stellaria media, herbicidal activity (Stellaria media [8]) | Abutilon theophrasti, herbicidal activity (Abutilon theophrasti [9]) | Amaranthus retroflexus, herbicidal activity (Amaranthus retroflexus [10]) | Echinochloa crus-galli, herbicidal activity (Echinochloa crus-galli [11]) | Lolium rigidum, herbicidal activity (Lolium rigidum [12]; application rate 320 g/ha) | Matricaria inodora, herbicidal activity (Matricaria inodora [13]) | Poa Annua, herbicidal activity (Poa annua [14]) | Setaria viridis, herbicidal activity (Setaria viridis [15]; application rate 320 g/ha) | Stellaria media, herbicidal activity (Stellaria media [16]) | Echinochloa crus-galli, herbicidal activity (Echinochloa crus-galli [3]; application rate 320 g/ha) | Lolium rigidum, herbicidal activity (Lolium rigidum [4]; application rate 320 g/ha) | Effect (inhibition of PS II activity) (photosystem II (PS II)) | further results
CCC(=O)OC1C=C(C)C(=O)N1c1cc(C(C)(C)C)no1 (stereo not drawn) [I.6-290] | 100% | 100% | 100% | 90% | 100% | 100% | 100% | 100% | 100% | 100% | 90% | 90% | 100% | 100% | 90% | 100% |  |  |  | 
CC1=CC(O)N(c2cc(C(C)(C)C)on2)C1=O (stereo not drawn) [I.2-162, 5-hydroxy-3-methyl-1-(5-tert-butyl-1,2-isoxazol-3-yl)-1,5-dihydro-2H-pyrrol-2-one] | 100% | 100% |  |  | 100% | 100% | 100% | 100% | 100% | 100% | 100% | 90% | 100% | 100% | 100% | 100% | 100% | 90% | ++++ (inhibition≥90%) | 
CC1=CC(O)N(c2cc(C(C)(C)C)no2)C1=O (stereo not drawn) [I.2-290, 5-hydroxy-3-methyl-1-(3-tert-butyl-1,2-isoxazol-5-yl)-1,5-dihydro-2H-pyrrol-2-one] | 100% | 100% | 100% | 100% | 100% | 100% | 100% | 100% | 100% | 100% | 100% |  | 100% | 100% |  | 100% |  |  | ++++ (inhibition≥90%) | Lolium rigidum, herbicidal activity (Lolium rigidum [12]; application rate 1280 g/ha): 100%; Setaria viridis, herbicidal activity (Setaria viridis [15]; application rate 1280 g/ha): 100%
CC1=CC(O)N(c2noc(C(C)(C)C)c2C)C1=O (stereo not drawn) [I.2-177] | 100% | 100% |  |  | 100% | 100% |  | 100% | 100% | 90% | 100% | 90% | 100% | 100% | 100% | 100% | 100% | 90% | ++++ (inhibition≥90%) | 
